Values quoted from earlier work, collected in patent publication US20250288540A1, “METHODS AND COMPOSITIONS FOR PAIN MANAGEMENT” (SILO PHARMA, INC., priority 2024, published 2025).

How the values were obtained:
[1] = tested on: halothane requirements (MAC); conditions: rat
[2] = tested on: N-methyl-D-aspartate (NMDA) receptor

| Compound | solubility in ethanol (ethanol) | solubility in ether (ether) | solubility in methanol (methanol) | activity relative to ketamine in reducing halothane requirements (MAC) [1] | affinity at the NMDA receptor compared with ketamine [2] |
| --- | --- | --- | --- | --- | --- |
| CNC1(c2ccccc2Cl)CCCCC1=O.Cl (centres unmarked) [Ketamine hydrochloride, 2-(2-chlorophenyl)-2-(methylamino) cyclohexan-1-one hydrochloride] | ~750 mg/mL | practically insoluble | freely soluble |  |  |
| NC1(c2ccccc2Cl)CCCCC1=O (centres unmarked) [Norketamine] |  |  |  | about ⅓ | less affinity |
